{"source": "paper PMC9523446", "about": "(Frontiers in Pharmacology, 2022)", "key": {"[1]": {"target": "T1, human α10 nAChRs (Homo sapiens, UniProt Q9GZZ6)", "T1 sequence (Q9GZZ6 25-450)": "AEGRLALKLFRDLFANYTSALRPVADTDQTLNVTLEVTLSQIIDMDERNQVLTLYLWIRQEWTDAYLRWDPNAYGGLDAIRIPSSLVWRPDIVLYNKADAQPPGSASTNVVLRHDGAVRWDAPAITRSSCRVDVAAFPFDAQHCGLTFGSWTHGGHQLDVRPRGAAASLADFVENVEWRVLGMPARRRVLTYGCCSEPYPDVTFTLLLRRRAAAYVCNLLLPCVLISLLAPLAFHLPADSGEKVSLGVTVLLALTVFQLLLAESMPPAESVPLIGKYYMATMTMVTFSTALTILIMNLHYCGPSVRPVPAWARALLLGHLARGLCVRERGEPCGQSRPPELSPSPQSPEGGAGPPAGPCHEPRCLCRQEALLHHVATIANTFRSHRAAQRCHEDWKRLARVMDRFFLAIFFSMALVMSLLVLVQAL", "conditions": "ACh 1 mM", "description": "For the assessment of ligand activity, the oocyte membranes were clamped at a holding potential of −70 mV and continuously perfused with saline (control solution). […] Ligands were applied in this manner for concentrations up to 1 µM. […] For experiments examining the desensitization kinetics of α10-containing nAChRs, sibling oocytes were injected with 25 ng of cRNA for α10 subunits or cRNA for α9 and α10 subunits (25 ng each). Actinomycin-D (1 µM) was also used in some experiments to prevent RNA transcription and inhibit the expression of endogenous chloride channels. The oocytes were incubated in actinomycin-D for 36 h prior to assessment with TEVC electrophysiology."}, "[2]": {"target": "T1, human α10 nAChRs", "assay": "Agonist activation of α10 nAChRs, concentration-response in oocytes", "design": "Emax: dose or concentration left out as unconfirmed", "description": "For the assessment of ligand activity, the oocyte membranes were clamped at a holding potential of −70 mV and continuously perfused with saline (control solution). […] Ligands were applied in this manner for concentrations up to 1 µM."}, "[3]": {"target": "T1, human α10 nAChRs", "format": "cell-based", "design": "expressed in transfected cells"}, "[4]": {"target": "T1, human α10 nAChRs", "assay": "cell-based", "format": "cell-based", "design": "expressed in transfected cells", "conditions": "for ACh response in presence of ligand, of control values: oocytes incubated with BRU (20 μM)"}, "[5]": {"target": "T1, human α10 nAChRs", "assay": "Decay of ACh-evoked currents of ligand-incubated oocytes during saline perfusion (one-phase exponential plateau)", "conditions": "oocytes treated 3 days with 20 μM ligand; ACh 1 mM; calculated plateau, 95% CI in parentheses"}, "[6]": {"target": "human α9 nAChRs (Homo sapiens, UniProt Q9UGM1)", "sequence (Q9UGM1 26-479 limits assumed)": "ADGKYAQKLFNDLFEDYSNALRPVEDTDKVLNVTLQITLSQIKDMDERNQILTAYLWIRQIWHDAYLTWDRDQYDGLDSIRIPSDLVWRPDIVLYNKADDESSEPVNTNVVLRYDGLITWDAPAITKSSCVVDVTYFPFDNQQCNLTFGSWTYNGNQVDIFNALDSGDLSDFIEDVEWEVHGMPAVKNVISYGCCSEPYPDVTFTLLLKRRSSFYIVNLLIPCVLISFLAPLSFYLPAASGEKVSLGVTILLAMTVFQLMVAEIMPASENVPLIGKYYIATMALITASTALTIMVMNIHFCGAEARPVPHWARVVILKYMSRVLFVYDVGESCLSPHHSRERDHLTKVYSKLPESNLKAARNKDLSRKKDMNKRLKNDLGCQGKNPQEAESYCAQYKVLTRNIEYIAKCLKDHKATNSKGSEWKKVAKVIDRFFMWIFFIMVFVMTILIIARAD"}, "[7]": {"target": "T2, human α9α10 nAChRs (Homo sapiens, UniProt Q9GZZ6+Q9UGM1)", "T2 construct": "expressed in transfected cells; host or cells: Xenopus laevis oocytes co-injected with α9 and α10 cRNAs (1:1)", "T2 sequence (Q9UGM1 26-479 limits assumed)": "as above", "T2 sequence (Q9GZZ6 25-450)": "as the sequence (Q9GZZ6 25-450) above", "assay": "cell-based"}, "[8]": {"test_system": "X. laevis oocytes injected with water"}, "[9]": {"target": "T1, human α10 nAChRs", "assay": "Desensitization to 15 s pulse of ACh in calcium or barium saline", "format": "cell-based", "design": "expressed in transfected cells", "conditions": "for peak current amplitude in response to ACh: 15 s pulse of EC50 ACh, oocytes incubated in STR (20 μM)", "source_text": "(§1) Similar to the results presented in Figure 2, peak ACh-evoked currents from α10 nAChRs were reduced in the presence of barium compared to calcium (Figures 10A,B). […] By contrast with α10 nAChRs, α9α10 currents were much smaller in the presence of barium compared to calcium (Figures 10C,D). Furthermore, α9α10 nAChRs desensitized more slowly than α10 nAChRs."}, "[10]": {"target": "T2, human α9α10 nAChRs", "assay": "Desensitization to 15 s pulse of ACh in calcium or barium saline", "format": "cell-based", "conditions": "for peak current amplitude in response to ACh: 15 s pulse of EC50 ACh, oocytes incubated in saline only", "source_text": "as §1"}, "[11]": {"conditions": "oocytes treated 3 days with 20 μM ligand, ACh 1 mM"}, "[12]": {"conditions": "read-out: inhibition of ACh-evoked responses"}}, "note": "Several values for one entry are separate records, joined by “and”; a condition that tells them apart may be missing. Identical values can stand only once. Entries after “also recorded” stand apart in the source; their conditions may differ. Counter-ions that a name gives are not always drawn. Like-named read-outs stand apart in the source and are kept apart here. Starred links: 1 amine or outer side, 2 acyl side, 3 side chain; linkers in the order of their positions; H or OH if unused. Positions of bridges follow the written chain, without caps; N, C: chain ends. Non-standard residues stand in square brackets, D forms with d. Residues, ends and D or L forms follow the SMILES beside them. Chains are numbered I, II in the order given. Actinocin(9to1) = Cc1c2oc3c(C)ccc(C(=O)[*:1])c3nc-2c(C(=O)[*:2])c(N)c1=O; NMeV = CN[C@H](C(=O)O)C(C)C; Sar = CNCC(=O)O", "data": [{"smiles": "Cc1c2oc3c(C)ccc(C(=O)N[C@@H]4C(=O)N[C@H](C(C)C)C(=O)N5CCC[C@H]5C(=O)N(C)CC(=O)N(C)[C@@H](C(C)C)C(=O)O[C@@H]4C)c3nc-2c(C(=O)N[C@@H]2C(=O)N[C@H](C(C)C)C(=O)N3CCC[C@H]3C(=O)N(C)CC(=O)N(C)[C@@H](C(C)C)C(=O)O[C@@H]2C)c(N)c1=O", "note": "[Actino-D, actinomycin-D] (I: T[dV]P[Sar][NMeV] / II: T[dV]P[Sar][NMeV]; ester I:1-I:C, II:1-II:C; linker I:N-II:N via Actinocin(9to1))", "values": [{"measurement": "ACh-evoked response amplitude", "setting": "[1]; sibling oocytes incubated with 1 µM actinomycin-D (and STR 20 μM), barium", "result": "−164 ± 96", "unit": "nA"}, {"measurement": "ACh-evoked response amplitude", "setting": "[1]; sibling oocytes incubated with 1 µM actinomycin-D (and STR 20 μM), calcium ([…])", "result": "−186 ± 96", "unit": "nA"}]}, {"smiles": "CN1CCC[C@H]1c1cccnc1", "note": "[nicotine, (-)-nicotine hydrogen tartrate]", "values": [{"measurement": "agonist-evoked currents", "setting": "[2]; concentrations up to 1 mM, oocytes incubated in STR (20 μM)", "result": "failed to evoke current responses; also recorded: failed to induce detectable currents"}, {"measurement": "ACh-evoked current amplitude", "setting": "[3]", "result": "−6.0 ± 6.2", "unit": "nA"}, {"measurement": "ACh responses in the presence of ligand", "setting": "[4]", "result": "99 ± 8", "unit": "%"}]}, {"smiles": "COc1cc2c(cc1OC)[C@@]13CCN4CC5=CCO[C@H]6CC(=O)N2[C@H]1[C@H]6[C@H]5C[C@H]43", "note": "[BRU, dimethoxystrychnine sulfate hydrate]", "values": [{"measurement": "plateau to which ACh-evoked currents decay, of initial current amplitudes", "setting": "[5]", "result": "15% and 15 (13–17) %"}, {"measurement": "range of ACh-evoked current amplitudes", "setting": "[3]; [11]", "result": "−50 to −888", "unit": "nA"}, {"measurement": "ACh-evoked current amplitude", "setting": "[3]; oocytes treated 3 days with 20 μM ligand, ACh 1 mM, ± SD", "result": "−302 ± 225", "unit": "nA"}, {"measurement": "ACh response in presence of ligand, of control values", "setting": "[4]; ligand 100 nM perfused", "result": "87 ± 16", "unit": "%"}, {"measurement": "ACh response in presence of ligand, of control values", "setting": "[4]; ligand 1 μM (2nd of series 100 nM through 300 μM)", "result": "246 ± 74", "unit": "%"}, {"measurement": "ACh response in presence of ligand, of control values", "setting": "[4]; ligand 10 μM (3rd of series 100 nM through 300 μM)", "result": "371 ± 101", "unit": "%"}, {"measurement": "ACh response in presence of ligand, of control values", "setting": "[4]; ligand 100 μM (4th of series 100 nM through 300 μM)", "result": "260 ± 102", "unit": "%"}, {"measurement": "ACh response in presence of ligand, of control values", "setting": "[4]; ligand 300 μM perfused", "result": "168 ± 73", "unit": "%"}]}, {"smiles": "C[N+](C)(C)CCO", "note": "[choline]", "values": [{"measurement": "Emax", "setting": "[2]; read-out: maximal response, of the calculated maximal response to ACh", "result": "4 ± 2", "unit": "%"}, {"measurement": "ACh-evoked current amplitude before exposure to STR", "setting": "[6]", "result": "−78 ± 44", "unit": "nA"}]}, {"smiles": "O=C1C[C@@H]2OCC=C3CN4CC[C@]56c7ccccc7N1[C@H]5[C@H]2[C@H]3C[C@H]46", "note": "[STR, strychnine]", "values": [{"measurement": "plateau to which ACh-evoked currents decay, of initial current amplitudes", "setting": "[5]", "result": "74% and 74 (72–76) %"}, {"measurement": "ACh-evoked currents after acute application, of control values", "setting": "[7]", "result": "1.0 ± 0.5", "unit": "%"}, {"measurement": "inhibition at 20 µM", "setting": "[7]; [12]", "result": "~99", "unit": "%"}, {"measurement": "ACh-evoked current amplitude after exposure to STR", "setting": "[6]; subset of choline-incubated oocytes then incubated in STR (20 μM) for 24 h, ACh 100 μM", "result": "−2.1 ± 1.2", "unit": "nA"}, {"measurement": "ACh-evoked response amplitude", "setting": "[1]; oocytes treated 36 h with STR (20 μM), calcium replaced with equimolar barium", "result": "−301 ± 225", "unit": "nA"}, {"measurement": "ACh-evoked response amplitude", "setting": "[1]; oocytes treated 36 h with STR (20 μM), saline with calcium ([…])", "result": "−373 ± 273", "unit": "nA"}, {"measurement": "range of ACh-evoked current amplitudes", "setting": "[3]; [11]", "result": "−76 to −2,378 nA"}, {"measurement": "ACh-evoked currents after acute application, of control values", "setting": "[4]", "result": "52 ± 13", "unit": "%"}, {"measurement": "IC50", "setting": "[4]", "result": 20.2, "unit": "µM"}, {"measurement": "enhancement of ACh-evoked current amplitudes", "setting": "[4]", "result": "518 ± 411", "unit": "%"}, {"measurement": "response to ACh after perfusion with ligand", "setting": "[4]", "result": "−294 ± 149", "unit": "nA"}, {"measurement": "inhibition at 20 µM", "setting": "[4]; [12]", "result": "~50", "unit": "%"}, {"measurement": "ACh-evoked current amplitude", "setting": "[8]", "result": "−1.6 ± 0.7", "unit": "nA"}]}, {"smiles": "CC(=O)OCC[N+](C)(C)C", "note": "[ACh, acetylcholine]", "values": [{"measurement": "Hill Slope of activation curve", "setting": "[2]; oocytes incubated in STR (20 μM), 95% CI in parentheses", "result": "1.1 (0.9–1.3)"}, {"measurement": "ACh-evoked current amplitude", "setting": "[3]; oocytes treated 3 days with 5 mM ligand, ACh 1 mM, ± SD", "result": "−17 ± 11", "unit": "nA"}, {"measurement": "peak current amplitude in response to ACh", "setting": "[9]; barium", "result": "−1,430 ± 1,424 nA"}, {"measurement": "peak current amplitude in response to ACh", "setting": "[9]; calcium", "result": "−1,818 ± 1,329 nA"}, {"measurement": "current at the end of the 15 s pulse of ACh", "setting": "[9]; barium", "result": "−459 ± 375", "unit": "nA"}, {"measurement": "current at the end of the 15 s pulse of ACh, of peak amplitude", "setting": "[9]; barium", "result": "35 ± 11", "unit": "%"}, {"measurement": "current at the end of the 15 s pulse of ACh", "setting": "[9]; calcium", "result": "−553 ± 396", "unit": "nA"}, {"measurement": "current at the end of the 15 s pulse of ACh, of peak amplitude", "setting": "[9]; calcium", "result": "31 ± 6", "unit": "%"}, {"measurement": "peak current amplitude in response to ACh", "setting": "[10]; barium", "result": "−31 ± 40", "unit": "nA"}, {"measurement": "peak current amplitude in response to ACh", "setting": "[10]; calcium", "result": "−484 ± 270", "unit": "nA"}, {"measurement": "current at the end of the 15 s pulse of ACh", "setting": "[10]; barium", "result": "−23 ± 30", "unit": "nA"}, {"measurement": "current at the end of the 15 s pulse of ACh, of peak amplitude", "setting": "[10]; barium", "result": "73 ± 8", "unit": "%"}, {"measurement": "current at the end of the 15 s pulse of ACh", "setting": "[10]; calcium", "result": "−154 ± 74", "unit": "nA"}, {"measurement": "current at the end of the 15 s pulse of ACh, of peak amplitude", "setting": "[10]; calcium", "result": "33 ± 4", "unit": "%"}]}]}
